Source: article PMC2625307 (Journal of molecular biology, 2008)

Tests used:
[1] = test system: MN-25; assay type: cell-based, HIV-1 group M; conditions: JC53BL-13 cells, genetic distance to HXBc2 0.17951
[2] = biological target: T1, YU2 gp120 (Human immunodeficiency virus type 1 group M subtype B, UniProt P35961); design: species or system HIV-1; conditions: vs other mimetics
[3] = biological target: HXBc2 gp120 (Human immunodeficiency virus type 1 group M subtype B, UniProt P04578); assay: Surface-plasmon resonance binding, HXBc2 gp120; design: species or system HIV-1
[4] = test system: HIV-1 gp120; conditions: vs biphenyl counterpart (CD4M33, CD4M47)
[5] = test system: GAB-1 fl; assay type: cell-based, SIVcpz (P.t.t); conditions: JC53BL-13 cells, genetic distance to HXBc2 0.43711
[6] = test system: BaL; assay type: cell-based, HIV-1 group M; conditions: PM1 cells, genetic distance to HXBc2 0.13532
[7] = test system: YU-2 env; assay type: cell-based, HIV-1 group M; conditions: JC53BL-13 cells, genetic distance to HXBc2 0.16766
[8] = biological target: T1, YU2 gp120; assay: Surface-plasmon resonance binding, YU2 gp120; design: species or system HIV-1
[9] = test system: GAB-2 62 fl; assay type: cell-based, SIVcpz (P.t.t); conditions: JC53BL-13 cells, genetic distance to HXBc2 0.47819
[10] = biological target: T1, YU2 gp120; assay: Contact surface area of gp120, YU2; design: species or system HIV-1
[11] = test system: IIIB; assay type: cell-based, HIV-1 group M; conditions: PM1 cells, genetic distance to HXBc2 0.03060
[12] = test system: NL4.3 env; assay type: cell-based, HIV-1 group M; conditions: JC53BL-13 cells, genetic distance to HXBc2 0.05769

CC(C)C[C@@H]1NC(=O)CNC(=O)[C@H](CC(C)C)NC(=O)[C@H](CO)NC(=O)[C@H](CCCCN)NC(=O)[C@@H]2CSSC[C@@H](C(=O)N[C@H](C(N)=O)C(C)C)NC(=O)[C@H](C)NC(=O)[C@@H]3CSSC[C@H](NC(=O)[C@H](Cc4ccccc4)NC(=O)[C@H](Cc4c[nH]cn4)NC(=O)[C@H](CC(C)C)NC(=O)[C@H](CC(N)=O)NC(=O)CCSSC[C@H](NC(=O)[C@H](CCCCN)NC(=O)CNC(=O)[C@H](CC(C)C)NC1=O)C(=O)N[C@@H](C)C(=O)NCC(=O)N[C@@H](CO)C(=O)N[C@@H](Cc1ccccc1)C(=O)N3)C(=O)N[C@@H](CCC(N)=O)C(=O)N[C@@H](CC(C)C)C(=O)N[C@@H](CCCNC(=N)N)C(=O)N2 [[Phe^23]M33]
IC50 [1]: 3600 nM
similarity of induced gp120 conformation to that induced by CD4 [2]: the closest mimic to CD4
Kd [3]: 18.9 ± 0.14 nM
on-rate compared with biphenyl counterpart [4]: about half as fast
IC50 [5]: 350 nM
IC50 [6]: 200 nM
IC50 [7]: 1000 nM
Kd [8]: 35.1 ± 0.18 nM
IC50 [9]: 1000 nM
Contact surface area of gp120, total ([10]; asymmetric unit molecule (1)): 363.8 Å^2
Contact surface area of gp120, total ([10]; asymmetric unit molecule (2)): 398.0 Å^2
IC50 [11]: 260 nM
IC50 [12]: 13 nM
